Laboratory results as given in US11186585B2 (priority 2018, dated 2021).
“And” between values parts separate entries of the source, which are not always exact repeats. Equal entries are not always repeated.

Assays:
[1] = tested on: Sprague-Dawley rats; test: Antinociceptive activity, cold ethanol tail-flick test after oral gavage; assay type: in vivo, rat; details: oral gavage in sesame oil, 60 uM/kg, one dose; tail-flick at −20° C., cutoff 40 seconds
[2] = in vivo; cited from earlier work
[3] = tested on: healthy volunteers; test: Double-blind trial, heat pain threshold (hot water at 50° C.) after oral capsule; assay type: in vivo, human; details: oral, individual data, 33 45 mg, NB 35 mg, 39 68 mg
Method: Double-blind, NB hydrochloride and NB-39 controlled, trial of the antinociceptive effect of oral NB-33 in healthy volunteers. […] Each week a healthy volunteer would receive a pill from the assigned set in a random fashion and take it orally. […]
(§1) Following one week of a wash out period, each volunteer repeated the protocol until all pills from the assigned set were administered. The individual data for heat pain threshold as % MPE=[(test latency−baseline latency)/(baseline latency)]×100 and for miosis as % MPE=[(test diameter−baseline diameter)/(baseline diameter)]×100 are shown in Table 2 and Table 3 respectively.
(§2) Independent samples t-test was used to compare the means of % MPE analgesia and miosis in the two pairs of samples: NB-33 and NB and NB-33 and NB-39. All analyses were made using SPSS (v.25). • Bold indicates statistical significance at α=0.05

[4] = tested on: healthy volunteers; test: Double-blind trial, miosis after oral capsule; assay type: in vivo, human; details: oral, individual data, 33 45 mg, NB 35 mg, 39 68 mg
Method: Double-blind, NB hydrochloride and NB-39 controlled, trial of the antinociceptive effect of oral NB-33 in healthy volunteers. Each of the three healthy volunteers was assigned a set of 6 non-transparent gelatin capsules as follows: 2×NB hydrochloride (MW=393.4; 39 mg), 2×NB-33 (MW=451.6; 45 mg) and 2×NB-39 (MW=680.0; 68 mg). Each week a healthy volunteer would receive a pill from the assigned set in a random fashion and take it orally. At T=0 hr, 0.25 hr, 0.5 hr, 1 hr, 1.5 hr, 2 hr, 3 hr and 5 hr followed oral administration a heat pain threshold was measured (hot water at 50° C.) as well as miosis.
as §1, §2

Oc1ccc2c3c1OC1C(O)CCC4(O)C(C2)N(CC2CCC2)CCC314 (centres unmarked) [NB, 3-(cyclobutylmethyl)-1,2,3,4,5,6,7,7a-octahydro-4aH-4,12-methanobenzofuro[3,2-e]isoquinoline-4a,7,9-triol]
Analgesia (rat) [1]: moderate | oral bioavailability [2]: low | % MPE (analgesia) ([3]; 0 hr (baseline)): 0.0 % MPE | % MPE (analgesia) ([3]; 0.25 hr): 0.0 % MPE and 29.5 % MPE and 5.3 % MPE (2×) and 56.3 % MPE and 21.4 % MPE | % MPE (analgesia) ([3]; 0.5 hr): 5.6 % MPE and 39.3 % MPE and 10.5 % MPE and 50.0 % MPE and 21.1 % MPE and 35.7 % MPE | % MPE (analgesia) ([3]; 1 hr): 50.0 % MPE and 34.4 % MPE and 42.1 % MPE and 87.5 % MPE and 47.4 % MPE and 57.1 % MPE | % MPE (analgesia) ([3]; 1.5 hr): 100.0 % MPE and 54.1 % MPE and 68.4 % MPE and 112.5 % MPE and 73.7 % MPE and 78.6 % MPE | % MPE (analgesia) ([3]; 2 hr): 94.4 % MPE and 54.1 % MPE and 94.7 % MPE and 162.5 % MPE and 57.9 % MPE and 50.0 % MPE | % MPE (analgesia) ([3]; 2.5 hr): 66.7 % MPE and 82.0 % MPE and 57.9 % MPE and 106.3 % MPE and 36.8 % MPE and 35.7 % MPE | % MPE (analgesia) ([3]; 3 hr): 22.2 % MPE and 32.8 % MPE and 68.4 % MPE and 37.5 % MPE and 57.9 % MPE and 0.0 % MPE | % MPE (analgesia) ([3]; 5 hr): −5.6 % MPE and 27.9 % MPE and 5.3 % MPE (2×) and 26.7 % MPE and 0.0 % MPE | % MPE (miosis) ([4]; 0 hr (baseline)): 0.0 % MPE | % MPE (miosis) ([4]; 0.25 hr): 3.1 % MPE and 9.4 % MPE and 6.7 % MPE and 0.0 % MPE and 3.2 % MPE and 2.9 % MPE | % MPE (miosis) ([4]; 0.5 hr): 9.4 % MPE (2×) and 37.5 % MPE and 0.0 % MPE and 9.7 % MPE and 8.8 % MPE | % MPE (miosis) ([4]; 1 hr): 21.9 % MPE (2×) and 46.9 % MPE and 6.7 % MPE and 45.2 % MPE and −2.9 % MPE | % MPE (miosis) ([4]; 1.5 hr): 17.2 % MPE (2×) and 65.6 % MPE and 25.0 % MPE and 45.2 % MPE and 29.4 % MPE | % MPE (miosis) ([4]; 2 hr): 18.8 % MPE and 31.3 % MPE (2×) and 55.6 % MPE and 58.1 % MPE and 11.8 % MPE | % MPE (miosis) ([4]; 2.5 hr): 18.8 % MPE and 3.1 % MPE and 50.0 % MPE and 25.0 % MPE and 25.8 % MPE and 26.5 % MPE | % MPE (miosis) ([4]; 3 hr): 6.2 % MPE (2×) and 33.3 % MPE and 21.9 % MPE and 16.1 % MPE and 20.6 % MPE | % MPE (miosis) ([4]; 5 hr): 6.2 % MPE (2×) and 3.1 % MPE and 22.2 % MPE and 9.7 % MPE and 7.8 % MPE
